Data as given in patent US11149030B2, “Plants having increased tolerance to herbicides” (BASF AGRO B.V., priority 2016, dated 2021).
Several values for one entry are separate records, joined by “and”; a condition that tells them apart may be missing. Equal values may be shown once.

Columns and labels:
[1] = test system: T2 maize events expressing the indicated Amaranthus PPO2 variant transgene; experiment: Maize whole plant PPO inhibitor tolerance testing, injury 0-9 point scale (Table B); assay type: in vivo; conditions: V2 stage, 3 days after treatment, individual plants
Description: Immature embryos are transformed according to the procedure outlined in Peng et al. (WO2006/136596). Plants are tested for the presence of the T-DNA by Taqman analysis with the target being the nos terminator which is present in all constructs. Healthy looking plants are sent to the greenhouse for hardening and subsequent spray testing. The plants are individually transplanted into MetroMix 360 soil in 4″ pots. Once in the greenhouse (day/night cycle of 27° C./21° C. with 14 hour day length supported by 600 W high pressure sodium lights), they are allowed to grow for 14 days. […] 200 g ai/ha saflufenacil+1.0% v/v methylated seed oil (MSO) and/or 25-200 g ai/ha 1,5-dimethyl-6-thioxo-3-(2,2,7-trifluoro-3-oxo-4-(prop-2-ynyl)-3,4-dihydro-2H-benzo[b][1,4]oxazin-6-yl)-1,3,5-triazinane-2,4-dione (CAS 1258836-72-4) plus 1% MSO. Other PPO inhibiting herbicides are also tested in a similar fashion for confirming cross resistance: flumioxazin, butafenacil, acifluorfen, lactofen, bifenox, sulfentrazone, methyl 2-[2-chloro-5-[3-chloro-5-(trifluoromethyl)-2-pyridyl]-4-fluoro-phenoxy]-2-methoxy-acetate, ethyl 2-[2-chloro-5-[3-chloro-5-(trifluoromethyl)-2-pyridyl]-4-fluoro-phenoxy]-2-methoxy-acetate, prop-2-ynyl 2-[2-chloro-5-[3-chloro-5-(trifluoromethyl)-2-pyridyl]-4-fluoro-phenoxy]-2-methoxy-acetate and photosynthesis inhibitor diuron as negative control. […] […] The top survivors are transplanted into gallon pots filled with Metro Mix 360 for seed production.

[2] = test system: transgenic T2 Arabidopsis plants; experiment: Greenhouse spray of transgenic T2 Arabidopsis plants, herbicide injury 0 to 100% phytotox rating (Table A); assay type: in vivo; conditions: 14 days after treatment
Description: Additionally, transgenic T2 Arabidopsis plants are tested for improved tolerance to herbicides in greenhouse studies with the following herbicides: methyl 2-[2-chloro-5-[3-chloro-5-(trifluoromethyl)-2-pyridyl]-4-fluoro-phenoxy]-2-methoxy-acetate, and photosynthesis inhibitor diuron as negative control.
Table A: Transgenic T2 Arabidopsis plants, four weeks old, were sprayed in the greenhouse with the indicated amount of compound+1% (v/v) MSO. Herbicide injury was evaluated 14 days after treatment with a 0 to 100% phytotox rating scale where 0 is no injury relative to an unsprayed wild type check and 100% is completely dead.

COC(=O)C(OC)Oc1cc(-c2ncc(C(F)(F)F)cc2Cl)c(F)cc1Cl (centres unmarked) [methyl 2-[2-chloro-5-[3-chloro-5-(trifluoromethyl)-2-pyridyl]-4-fluoro-phenoxy]-2-methoxy-acetate]
injury on a 0-9 point scale ([1]; maize T2, transgene L397D_F420M, 25 g ai/ha + 1% v/v MSO): 0 (2×) and 3 and 1 | injury on a 0-9 point scale ([1]; maize T2, transgene L397D_F420M, 50 g ai/ha + 1% v/v MSO): 0 (2×) and 1 (2×) | injury on a 0-9 point scale ([1]; maize T2, transgene L397D_F420M, 100 g ai/ha + 1% v/v MSO): 0 (3×) and 1 | injury on a 0-9 point scale ([1]; maize T2, transgene L397D_F420M, 200 g ai/ha + 1% v/v MSO): 0 (2×) and 2 and 1 | injury on a 0-9 point scale ([1]; maize T2, transgene L397E_F420M, 25 g ai/ha + 1% v/v MSO): 9 (2×) and 2 and 0 | injury on a 0-9 point scale ([1]; maize T2, transgene L397E_F420M, 50 g ai/ha + 1% v/v MSO): 0 and 9 (2×) and 1 | injury on a 0-9 point scale ([1]; maize T2, transgene L397E_F420M, 100 g ai/ha + 1% v/v MSO): 4 and 1 and 0 | injury on a 0-9 point scale ([1]; maize T2, transgene L397E_F420M, 200 g ai/ha + 1% v/v MSO): 0 and 6 (2×) and 5 | injury on a 0-9 point scale ([1]; maize T2, transgene R128A_F420I, 25 g ai/ha + 1% v/v MSO): 0 (2×) and 1 (2×) | injury on a 0-9 point scale ([1]; maize T2, transgene R128A_F420I, 50 g ai/ha + 1% v/v MSO): 2 and 1 (2×) and 0 | injury on a 0-9 point scale ([1]; maize T2, transgene R128A_F420I, 100 g ai/ha + 1% v/v MSO): 0 (2×) and 1 (2×) | injury on a 0-9 point scale ([1]; maize T2, transgene R128A_F420I, 200 g ai/ha + 1% v/v MSO): 1 (3×) and 0 | injury on a 0-9 point scale ([1]; maize, Non transgenic, 25 g ai/ha + 1% v/v MSO): 8 and 9 (3×) | injury on a 0-9 point scale ([1]; maize, Non transgenic, 50 g ai/ha + 1% v/v MSO): 9 | injury on a 0-9 point scale ([1]; maize, Non transgenic, 100 g ai/ha + 1% v/v MSO): 9 | injury on a 0-9 point scale ([1]; maize, Non transgenic, 200 g ai/ha + 1% v/v MSO): 9 | Herbicide injury, 0 to 100% phytotox rating ([2]; construct ALOMY_PPO2 F438I, 50 g ai/ha + 1% (v/v) MSO): 48% | Herbicide injury, 0 to 100% phytotox rating ([2]; construct ALOMY_PPO2 F438I, 100 g ai/ha + 1% (v/v) MSO): 64% | Herbicide injury, 0 to 100% phytotox rating ([2]; construct ALOMY_PPO2 F438I, 200 g ai/ha + 1% (v/v) MSO): 79% | Herbicide injury, 0 to 100% phytotox rating ([2]; construct ALOMY_PPO2 F438M, 50 g ai/ha + 1% (v/v) MSO): 30% | Herbicide injury, 0 to 100% phytotox rating ([2]; construct ALOMY_PPO2 F438M, 100 g ai/ha + 1% (v/v) MSO): 43% | Herbicide injury, 0 to 100% phytotox rating ([2]; construct ALOMY_PPO2 F438M, 200 g ai/ha + 1% (v/v) MSO): 69% | Herbicide injury, 0 to 100% phytotox rating ([2]; construct ALOMY_PPO2 F438V, 50 g ai/ha + 1% (v/v) MSO): 36% | Herbicide injury, 0 to 100% phytotox rating ([2]; construct ALOMY_PPO2 F438V, 100 g ai/ha + 1% (v/v) MSO): 55% | Herbicide injury, 0 to 100% phytotox rating ([2]; construct ALOMY_PPO2 F438V, 200 g ai/ha + 1% (v/v) MSO): 69% | Herbicide injury, 0 to 100% phytotox rating ([2]; construct ALOMY_PPO2 L415A_F438M, 50 g ai/ha + 1% (v/v) MSO): 23% | Herbicide injury, 0 to 100% phytotox rating ([2]; construct ALOMY_PPO2 L415A_F438M, 100 g ai/ha + 1% (v/v) MSO): 28% | Herbicide injury, 0 to 100% phytotox rating ([2]; construct ALOMY_PPO2 L415A_F438M, 200 g ai/ha + 1% (v/v) MSO): 39% | Herbicide injury, 0 to 100% phytotox rating ([2]; construct ALOMY_PPO2 L415E_F438M, 50 g ai/ha + 1% (v/v) MSO): 15% | Herbicide injury, 0 to 100% phytotox rating ([2]; construct ALOMY_PPO2 L415E_F438M, 100 g ai/ha + 1% (v/v) MSO): 29% | Herbicide injury, 0 to 100% phytotox rating ([2]; construct ALOMY_PPO2 L415E_F438M, 200 g ai/ha + 1% (v/v) MSO): 43% | Herbicide injury, 0 to 100% phytotox rating ([2]; construct ALOMY_PPO2 L415G_F438M (two table lines), 50 g ai/ha + 1% (v/v) MSO): 36% and 26% | Herbicide injury, 0 to 100% phytotox rating ([2]; construct ALOMY_PPO2 L415G_F438M (two table lines), 100 g ai/ha + 1% (v/v) MSO): 46% and 34% | Herbicide injury, 0 to 100% phytotox rating ([2]; construct ALOMY_PPO2 L415G_F438M (two table lines), 200 g ai/ha + 1% (v/v) MSO): 59% and 46% | Herbicide injury, 0 to 100% phytotox rating ([2]; construct ALOMY_PPO2 L415Q_F438M, 50 g ai/ha + 1% (v/v) MSO): 18% | Herbicide injury, 0 to 100% phytotox rating ([2]; construct ALOMY_PPO2 L415Q_F438M, 100 g ai/ha + 1% (v/v) MSO): 23% | Herbicide injury, 0 to 100% phytotox rating ([2]; construct ALOMY_PPO2 L415Q_F438M, 200 g ai/ha + 1% (v/v) MSO): 41% | Herbicide injury, 0 to 100% phytotox rating ([2]; construct ALOMY_PPO2 R137L_F438L, 50 g ai/ha + 1% (v/v) MSO): 55% | Herbicide injury, 0 to 100% phytotox rating ([2]; construct ALOMY_PPO2 R137L_F438L, 100 g ai/ha + 1% (v/v) MSO): 59% | Herbicide injury, 0 to 100% phytotox rating ([2]; construct ALOMY_PPO2 R137L_F438L, 200 g ai/ha + 1% (v/v) MSO): 71% | Herbicide injury, 0 to 100% phytotox rating ([2]; construct ALOMY_PPO2 R137L_F438M, 50 g ai/ha + 1% (v/v) MSO): 50% | Herbicide injury, 0 to 100% phytotox rating ([2]; construct ALOMY_PPO2 R137L_F438M, 100 g ai/ha + 1% (v/v) MSO): 68% | Herbicide injury, 0 to 100% phytotox rating ([2]; construct ALOMY_PPO2 R137L_F438M, 200 g ai/ha + 1% (v/v) MSO): 70% | Herbicide injury, 0 to 100% phytotox rating ([2]; construct ALOMY_PPO2 R137L_F438V, 50 g ai/ha + 1% (v/v) MSO): 39% | Herbicide injury, 0 to 100% phytotox rating ([2]; construct ALOMY_PPO2 R137L_F438V, 100 g ai/ha + 1% (v/v) MSO): 58% | Herbicide injury, 0 to 100% phytotox rating ([2]; construct ALOMY_PPO2 R137L_F438V, 200 g ai/ha + 1% (v/v) MSO): 65% | Herbicide injury, 0 to 100% phytotox rating ([2]; construct AMATU_PPO2 L397C_F420M, 50 g ai/ha + 1% (v/v) MSO): 58% | Herbicide injury, 0 to 100% phytotox rating ([2]; construct AMATU_PPO2 L397C_F420M, 100 g ai/ha + 1% (v/v) MSO): 63% | Herbicide injury, 0 to 100% phytotox rating ([2]; construct AMATU_PPO2 L397C_F420M, 200 g ai/ha + 1% (v/v) MSO): 71% | Herbicide injury, 0 to 100% phytotox rating ([2]; construct AMATU_PPO2 L397D_F420V, 50 g ai/ha + 1% (v/v) MSO): 49% | Herbicide injury, 0 to 100% phytotox rating ([2]; construct AMATU_PPO2 L397D_F420V, 100 g ai/ha + 1% (v/v) MSO): 59% | Herbicide injury, 0 to 100% phytotox rating ([2]; construct AMATU_PPO2 L397D_F420V, 150 g ai/ha + 1% (v/v) MSO): 67% | Herbicide injury, 0 to 100% phytotox rating ([2]; construct AMATU_PPO2 L397E_F420M, 50 g ai/ha + 1% (v/v) MSO): 59%
